Assay results as given in patent US10183944B2 (Asana Biosciences, LLC, priority 2011, dated 2019).
Structures can show the parent of a compound that is named as a salt. Where two headings read alike, the source gives them in different places.

Assays:
[1] = target: Syk (356-635 amino acids) catalytic domain (Homo sapiens (Human), UniProt P43405); assay: Inhibition of enzymatic Syk kinase activity (radiometric); type: biochemical
Procedure, shortened: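 Radiometric filter-binding format: 32P transfer from γ-32P-ATP onto pG4T, scintillation-counted after acid washes of P81 paper. Syk kinase domain (356-635), 0.035–7.5 ng per reaction, was exposed to compound for 30 minutes at room temperature before a 10-minute, 30° C. reaction with ATP (100 μM stock). Inhibition derived from counts with versus without compound.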

JAK2 = JAK2 (Homo sapiens (Human), UniProt O60674); assay: Inhibition of enzymatic JAK2 kinase activity (TR-FRET); type: biochemical
Procedure, shortened: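 TR-FRET read-out (Eu antibody donor, Ulight poly Glu-Tyr acceptor, 665/615 nm ratio) after a 60 min RT kinase reaction with ATP, begun following 30 min compound–enzyme preincubation. Stopped by EDTA; inhibition expressed as 100 minus % activity of positive control.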

RBL2H3 cells = assay: Degranulation assay: β-hexosaminidase release during immune complex mediated degranulation; type: cell-based, rat; details: Rattus norvegicus
Experimental: The objective of this assay was to examine by Fluorescence method the effect of compounds on β-hexosaminidase release during immune complex mediated degranulation in RBL2H3 cells. Compounds were tested for their ability to inhibit the ability of this immune complex to mediate β-hexosaminidase release, in an enzyme assay with […] as substrate. […] Emission 460 nm). [table] [table] RBL2H3 cells were maintained in MEM complete media containing 10% FBS at 70%-80% confluence in a mammalian cell culture CO2 incubator with 5% CO2 at 37° C. 2×10^5 cells/well were plated in 1 mL of complete media and incubated for 5 hours for cell attachment. Complete media was replaced with 1 mL of serum free MEM media containing 1.2 μg/mL of anti-DNP rat IgE as sensitizing agent and further incubated overnight with 5% CO2 at 37° C. […] Cells were further stimulated with 5 μg/mL of DNP-BSA for 60 minutes. Plates were centrifuged for 5 minutes at 1000 rpm and 25 μL of culture supernatant was transferred from each assay well into a 96 well black coated plate. 25 μL β-NAG substrate was added to this mixture and incubated at room temperature for 30 minutes. The reaction was terminated with 100 μL of stop solution and fluorescence was monitored. (Excitation 355 nm; Emission 460 nm) See, Sanderson, (2010), Cellular Immunology, 262(1): 28-34 and Silverman, (2006) MCB, 26(5):1826-1838, which are incorporated herein by reference. The % release of β-Hexosaminidase for the test compound was calculated using the following formula: RBL2H3 cells were maintained in MEM complete media containing 10% FBS at 70-80% confluence in a mammalian cell culture CO2 incubator with 5% CO2 at 37° C. 5×10^4 cells/well were plated in 200 μL of complete media containing 0.3 μg/mL of anti-DNP rat IgE as sensitizing agent for 24 hours at 37° C. & 5% CO2. The following day, cells were washed twice with PIPES buffer for 10 minutes at 37° C. and replenished with serum free MEM media. Cells were treated with various concentrations of test compounds (in 0.5% DMSO) for 15 minutes at 37° C. and 5% CO2. The cells were further stimulated with 0.1 μg/mL of DNP-BSA for 45 minutes. The plates were spun for 5 minutes at 2000 rpm and 25 μL of culture supernatant was then transferred from each assay well into a 96 well black coated plate. […] β-NAG substrate was added and incubated at RT for 30 minutes. After incubation with substrate, 150 μL of stop solution was added and fluorescence was monitored. (Excitation 355 nm; Emission 460 nm). See, Yamamoto, JPET, 306(3):1174-1181 (2003) and Taylor, MCB, 15(8): 4149-4157 (1995), which are herein incorporated by reference. Release of β-hexosaminidase during the degranulation process by immune complex mediated FcεRI stimulation is through the SYK pathway. The % inhibition of β-hexosaminidase release by Syk inhibitor gives information with regard to its Syk inhibition potency.

[2] = RBL-2H3, 1 μM, Assay Protocol B (96 well format), read-out: Degranulation % inhibition at 1 μM
[3] = RBL-2H3, Assay Protocol B (96 well format), read-out: Degranulation EC50

JAK2, sequence (O60674 808-1132): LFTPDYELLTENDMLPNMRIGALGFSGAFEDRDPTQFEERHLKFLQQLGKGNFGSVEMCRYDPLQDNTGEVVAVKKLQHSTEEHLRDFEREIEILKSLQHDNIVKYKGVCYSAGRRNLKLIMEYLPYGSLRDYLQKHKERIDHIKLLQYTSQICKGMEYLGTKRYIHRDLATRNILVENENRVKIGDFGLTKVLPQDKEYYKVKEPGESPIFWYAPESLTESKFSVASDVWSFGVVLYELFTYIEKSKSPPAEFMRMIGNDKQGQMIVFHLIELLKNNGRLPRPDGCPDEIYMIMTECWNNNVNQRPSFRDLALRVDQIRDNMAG

Row | Compound | IC50 ([1]; read-out: IC50 Syk) [nM] | IC50 (JAK2; read-out: IC50 JAK) [nM] | inhibition at 1 µM (RBL2H3 cells; [2]) [%] | EC50 (RBL2H3 cells; [3]) [nM] | IC50 ([1]; hydrochloride, read-out: IC50 Syk) [nM] | inhibition at 1 µM (RBL2H3 cells; RBL-2H3, 1 μM, Assay Protocol A (24 well format), read-out: Degranulation % inhibition at 1 μM) [%] | IC50 [1] [nM] | IC50 (JAK2) [nM] | inhibition at 1 µM (RBL2H3 cells; RBL-2H3, read-out: Degranulation % inhibition at 1 μM) [%] | EC50 (RBL2H3 cells; RBL-2H3, read-out: Degranulation EC50 (nM)) [nM]
1 | COCCN1CCN(c2ccc(Nc3nc(N4CCC(CC#N)CC4)nc4cn[nH]c(=O)c34)cc2)CC1 [Example 256, 2-(1-(4-((4-(4-(2-methoxyethyl)piperazin-1-yl)phenyl)amino)-5-oxo-5,6-dihydropyrimido[4,5-d]pyridazin-2-yl)piperidin-4-yl)acetonitrile] | < 10 | < 50 | 73 | 33 | – | – | – | – | – | –
2 | O=C(O)C1CC12CCN(CCOc1ccc(Nc3nc(N4CCCCCC4)nc4cn[nH]c(=O)c34)cc1)CC2 (stereo not drawn) [Example 158, 6-(2-(4-((2-(azepan-1-yl)-5-oxo-5,6-dihydropyrimido[4,5-d]pyridazin-4-yl)amino)phenoxy)ethyl)-6-azaspiro[2.5]octane-1-carboxylic acid] | < 50 | < 10 | 53 | 162 | – | – | – | – | – | –
3 | O=C(CC1CCN(c2ccc(Nc3nc(N4CCCCCC4)nc4cn[nH]c(=O)c34)cc2)CC1)N(CCO)CCO [Example 118, 2-(1-(4-((2-(azepan-1-yl)-5-oxo-5,6-dihydropyrimido[4,5-d]pyridazin-4-yl)amino)phenyl)piperidin-4-yl)-N,N-bis(2-hydroxyethyl)acetamide] | < 50 | < 10 | 87 | 153 | – | – | – | – | – | –
4 | O=c1[nH]ncc2nc(N3CCCCCC3)nc(Nc3ccc(N4CCN(CC(O)CO)CC4)cc3)c12 (stereo not drawn) [Example 273, 2-(azepan-1-yl)-4-((4-(4-(2,3-dihydroxypropyl)piperazin-1-yl)phenyl)amino)pyrimido[4,5-d]pyridazin-5(6H)-one] | < 10 | < 10 | 91 | 21 | – | – | – | – | – | –
5 | O=c1[nH]ncc2nc(N3CCCCCC3)nc(Nc3ccc(N4CCOCC4)cc3)c12 [Example 60, 2-(azepan-1-yl)-4-((4-morpholinophenyl)amino)pyrimido[4,5-d]pyridazin-5(6H)-one] | < 10 | < 10 | 100 | 18 | – | – | – | – | – | –
6 | O=C(O)CC1CCN(c2ccc(Nc3nc(-c4ccccc4)nc4cn[nH]c(=O)c34)cc2)CC1 [Example 34, 2-(1-(4-(5-oxo-2-phenyl-5,6-dihydropyrimido[4,5-d]pyridazin-4-ylamino)phenyl)piperidin-4-yl)acetic acid] | < 50 | < 50 | 80 | 378 | – | – | – | – | – | –
7 | NCC(=O)N1CCN(c2ccc(Nc3nc(-c4ccccc4)nc4cn[nH]c(=O)c34)cc2)CC1 [Example 11, 4-(4-(4-(2-aminoacetyl)piperazin-1-yl)phenylamino)-2-phenylpyrimido[4,5-d]pyridazin-5(6H)-one hydrochloride] | – | < 100 | – | – | < 50 | 100 | – | – | – | –
8 | O=c1[nH]ncc2nc(-c3ccc4c(c3)OCO4)nc(Nc3ccc(CN4CCNCC4)cc3)c12 [Example 33, 2-(benzo[d][1,3]dioxol-5-yl)-4-(4-(piperazin-1-ylmethyl)phenylamino) pyrimido[4,5-d]pyridazin-5(6H)-one hydrochloride] | < 50 | > 100 | 58 | – | – | – | – | – | – | –
9 | O=c1[nH]ncc2nc(N3CCCC3)nc(Nc3ccc(CN4CCNCC4)cc3)c12 [Example 48, 4-((4-(piperazin-1-ylmethyl)phenyl)amino)-2-(pyrrolidin-1-yl)pyrimido[4,5-d]pyridazin-5(6H)-one hydrochloride] | < 100 | < 100 | 100 | – | – | – | – | – | – | –
10 | O=C(O)C[C@H]1CC[C@@H](c2ccc(Nc3nc(N4CCCCCC4)nc4cn[nH]c(=O)c34)cc2)CC1 [Example 123, 2-((1S,4S)-4-(4-((2-(azepan-1-yl)-5-oxo-5,6-dihydropyrimido[4,5-d]pyridazin-4-yl)amino)phenyl)cyclohexyl)acetic acid] | < 10 | < 10 | 90 | 116 | – | – | – | – | – | –
11 | CN1CCN(c2ccc(Nc3nc(N4CCC(CC#N)CC4)nc4cn[nH]c(=O)c34)cc2)CC1 [Example 248, 2-(1-(4-((4-(4-methylpiperazin-1-yl)phenyl)amino)-5-oxo-5,6-dihydropyrimido[4,5-d]pyridazin-2-yl)piperidin-4-yl)acetonitrile] | < 10 | < 10 | 99 | 19 | – | – | – | – | – | –
12 | N#CCC1CCN(c2nc(Nc3ccc(OCCN)cc3)c3c(=O)[nH]ncc3n2)CC1 [Example 200, 2-(1-(4-((4-(2-aminoethoxy)phenyl)amino)-5-oxo-5,6-dihydropyrimido[4,5-d]pyridazin-2-yl)piperidin-4-yl) acetonitrile] | < 10 | < 50 | 71 | 66 | – | – | – | – | – | –
13 | O=C(OCOP(=O)(O)O)C1CC12CCN(c1ccc(Nc3nc(N4CCCCCC4)nc4cn[nH]c(=O)c34)cc1)CC2 (stereo not drawn) [Example 219, (phosphonooxy)methyl 6-(4-((2-(azepan-1-yl)-5-oxo-5,6-dihydropyrimido[4,5-d]pyridazin-4-yl)amino)phenyl)-6-azaspiro[2.5]octane-1-carboxylate] | – | – | – | – | – | – | < 10 | < 10 | 45 | 96
14 | O=C(O)CCC1CCN(c2ccc(Nc3nc(-c4ccccc4)nc4cn[nH]c(=O)c34)cc2)CC1 [Example 132, 3-(1-(4-((5-oxo-2-phenyl-5,6-dihydropyrimido[4,5-d]pyridazin-4-yl)amino)phenyl)piperidin-4-yl)propanoic acid] | < 50 | < 10 | 99 | 24 | – | – | – | – | – | –
15 | N#CCC1CCN(c2nc(Nc3ccc(N4CCNCC4)nc3)c3c(=O)[nH]ncc3n2)CC1 [Example 231, 2-(1-(5-oxo-4-((6-(piperazin-1-yl)pyridin-3-yl)amino)-5,6-dihydropyrimido[4,5-d]pyridazin-2-yl)piperidin-4-yl)acetonitrile] | < 50 | < 100 | 0 | 367 | – | – | – | – | – | –
16 | CN(C)CCN1CCN(c2ccc(Nc3nc(N4CCC(CC#N)CC4)nc4cn[nH]c(=O)c34)cc2)CC1 [Example 268, 2-(1-(4-((4-(4-(2-(dimethylamino)ethyl)piperazin-1-yl)phenyl)amino)-5-oxo-5,6-dihydropyrimido[4,5-d]pyridazin-2-yl)piperidin-4-yl)acetonitrile] | < 10 | < 50 | 93 | 20 | – | – | – | – | – | –
17 | CC(C)(CO)N1CCN(c2ccc(Nc3nc(N4CCC(CC#N)CC4)nc4cn[nH]c(=O)c34)cc2)CC1 [Example 266, 2-(1-(4-((4-(4-(1-hydroxy-2-methylpropan-2-yl)piperazin-1-yl)phenyl)amino)-5-oxo-5,6-dihydropyrimido[4,5-d]pyridazin-2-yl)piperidin-4-yl) acetonitrile] | < 10 | < 50 | 99 | 10 | – | – | – | – | – | –
18 | O=c1[nH]ncc2nc(N3CCCCCC3)nc(Nc3ccc(N4CCC(O)CC4)cc3)c12 [Example 186, 2-(azepan-1-yl)-4-((4-(4-hydroxypiperidin-1-yl)phenyl)amino) pyrimido[4,5-d]pyridazin-5(6H)-one] | < 10 | < 100 | 93 | 10 | – | – | – | – | – | –
